Values quoted from earlier work as cited in patent US4842859A, “Pharmaceutical compositions for reducing hyperlipidemia and platelet-aggregation” (priority 1986, dated 1989).

Key:
[1] = test system: transient ischemic attacks; conditions: men; prior art
[2] = patients; prior art; listed as clofibrate

SMILES	effect on incidence of transient ischemic attacks [1]	side effects / toxic effects [2]
CC(=O)Oc1ccccc1C(=O)O [Aspirin]	decrease the incidence of transient ischemic attacks	
CCOC(=O)C(C)(C)Oc1ccc(Cl)cc1 [Clofibrate]		decreased libido and breast tenderness
